Where two headings read alike, the source gives them in different places.
Key:
[1] = system: K562 (human chronic myelogenous leukemia) cells; assay: Cell Titer Glo 2.0 cell viability assay; assay type: cell-based; details: Homo sapiens, K562, 72 h, K562 cells, 72 hours, Cell Titer Glo 2.0; read-out: K562 GI50
MYB mRNA = assay: RT-qPCR splicing assay, MYB canonical junction (CJ) and alternative junction (AJ) mRNA; assay type: cell-based, human; details: Homo sapiens; for AC50: increase in MYB alternative junction (AJ) mRNA, read-out: MYB AJ AC50
Procedure, shortened: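 Following a 24-hour incubation of A673 or K562 cells with serially diluted compound (3-fold steps, highest final 10 uM), the lysates undergo cDNA synthesis plus qPCR. Canonical and alternative junctions are each quantified against PPIA, GAPDH or GUSB.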

MYB = assay: HiBiT protein abundance assay, MYB HiBiT K562 cell line; assay type: cell-based, human; details: HiBiT K562 cell line, 24 hours, top dose 10 μM; read-out: Effect on protein abundance, MYB (IC50 category)
Procedure, shortened: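 Endogenous targets in K562 knock-in lines carried a HiBiT tag and were treated for 24 h at 37 °C with 10-point 3-fold dilutions (top 10 μM final, DMSO ≤0.25%). Abundance was read as lytic Nano-Glo HiBiT luminescence. IC50 came from a four-parameter logistic fit of normalized response.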

[2] = Table 5 panel, canonical junction qPCR, compound concentration having 50% response in CJ decrease, read-out: MYB IC50 (decrease in CJ mRNA levels)
[3] = decrease in MYB canonical junction (CJ) mRNA, RT-qPCR, read-out: MYB CJ IC50

Cc1cn2nc(-c3ccc4c(=O)n(C5CCCNC5)ccc4c3)cc(C)c2n1 (stereo in doubt) [Compound 410, 6-{2,8-dimethylimidazo[1,2-b]pyridazin-6-yl}-2-[(3S)-piperidin-3-yl]isoquinolin-1-one]
1 to 10 µM: GI50 [1]
0.1 to 1 µM: IC50 (MYB mRNA; [2]) | IC50 (MYB mRNA; [3]) | AC50 (MYB mRNA; RT-qPCR) | IC50 (MYB)

Cc1cn2cc(-c3cc(F)c4c(=O)n(C5CCOC5)cnc4c3)cc(C#N)c2n1 (stereo in doubt) [Compound 500, (S)-6-(5-fluoro-4-oxo-3-(tetrahydrofuran-3-yl)-3,4-dihydroquinazolin-7-yl)-2-methylimidazo[1,2-a]pyridine-8-carbonitrile]
0.1 to 1 µM: GI50 [1] | IC50 (MYB mRNA; [2]) | IC50 (MYB mRNA; [3]) | AC50 (MYB mRNA; RT-qPCR) | IC50 (MYB)

Cc1cn2nc(-c3ccc4c(=O)n(C5CCNC6(CC6)C5)ccc4c3)cc(C)c2n1 (stereo not shown) [Compound 384]
< 0.1 µM: IC50 (MYB mRNA; [2]) | IC50 (MYB mRNA; [3]) | AC50 (MYB mRNA; RT-qPCR) | IC50 (MYB)
0.1 to 1 µM: GI50 [1]

Cc1cn2nc(-c3cc(C)c4c(=O)n(C5CCNC6(CC6)C5)ncc4c3)cc(C)c2n1 (stereo not shown) [Compound 423, 6-(2,8-dimethylimidazo[1,2-b]pyridazin-6-yl)-8-methyl-2-(4-azaspiro[2.5]octan-7-yl)phthalazin-1(2H)-one]
< 0.1 µM: IC50 (MYB mRNA; [2]) | IC50 (MYB mRNA; [3]) | AC50 (MYB mRNA; RT-qPCR) | IC50 (MYB)
0.1 to 1 µM: GI50 [1]

Cc1cn2cc(-c3cc(F)c4c(=O)n(C5CCNCC5)ccc4c3)cc(C#N)c2n1 [Compound 383, 6-[8-fluoro-1-oxo-2-(piperidin-4-yl)isoquinolin-6-yl]-2-methylimidazo[1,2-a]pyridine-8-carbonitrile]
0.1 to 1 µM: GI50 [1]
< 0.1 µM: IC50 (MYB mRNA; [2]) | IC50 (MYB mRNA; [3]) | AC50 (MYB mRNA; RT-qPCR) | IC50 (MYB)

Cc1cn2cc(-c3cc(F)c4c(=O)n(C5CCNC6(CC6)C5)ccc4c3)c(O)c(C)c2n1 (stereo not shown) [Compound 421, 2-{4-azaspiro[2.5]octan-7-yl}-8-fluoro-6-{7-hydroxy-2,8-dimethylimidazo[1,2-a]pyridin-6-yl}isoquinolin-1-one]
> 10 µM: GI50 [1] | IC50 (MYB mRNA; [2]) | IC50 (MYB mRNA; [3]) | AC50 (MYB mRNA; RT-qPCR) | IC50 (MYB)

Cc1cn2cc(-c3cc(S(C)(=O)=O)c4c(=O)n(C5CCNCC5)ccc4c3)cc(F)c2n1 [Compound 409, 6-(8-fluoro-2-methylimidazo[1,2-a]pyridin-6-yl)-8-(methylsulfonyl)-2-(piperidin-4-yl)isoquinolin-1(2H)-one]
> 10 µM: GI50 [1] | IC50 (MYB mRNA; [2]) | IC50 (MYB mRNA; [3]) | AC50 (MYB mRNA; RT-qPCR) | IC50 (MYB)

Cc1cn2cc(-c3cc(O)c4c(=O)n(C5CCNC5)ccc4c3)cc(C#N)c2n1 (stereo not shown) [Compound 433, 6-(8-hydroxy-1-oxo-2-(pyrrolidin-3-yl)-1,2-dihydroisoquinolin-6-yl)-2-methylimidazo[1,2-a]pyridine-8-carbonitrile]
< 0.1 µM: IC50 (MYB mRNA; [2])
1 to 10 µM: GI50 [1] | IC50 (MYB mRNA; [3]) | IC50 (MYB)
0.1 to 1 µM: AC50 (MYB mRNA; RT-qPCR)

Cc1cn2cc(-c3cc(F)c4c(=O)n(C5CCOC5)cnc4c3)cc(C#N)c2n1 (stereo in doubt) [Compound 499, (R)-6-(5-fluoro-4-oxo-3-(tetrahydrofuran-3-yl)-3,4-dihydroquinazolin-7-yl)-2-methylimidazo[1,2-a]pyridine-8-carbonitrile]
0.1 to 1 µM: GI50 [1] | IC50 (MYB mRNA; [2]) | IC50 (MYB mRNA; [3]) | AC50 (MYB mRNA; RT-qPCR) | IC50 (MYB)

Cn1cc2cc(-c3cc(F)c4c(=O)n(C5CCNCC5)ccc4c3)cc(C#N)c2n1 [Compound 394, 5-(8-fluoro-1-oxo-2-(piperidin-4-yl)-1,2-dihydroisoquinolin-6-yl)-2-methyl-2H-indazole-7-carbonitrile]
< 0.1 µM: GI50 [1] | IC50 (MYB mRNA; [2]) | IC50 (MYB mRNA; [3]) | AC50 (MYB mRNA; RT-qPCR) | IC50 (MYB)

Cc1cn2nc(-c3cc(O)c4c(=O)n(C5CCNC5)cc(C)c4c3)cc(C)c2n1 (stereo not shown) [Compound 462]
1 to 10 µM: GI50 [1] | IC50 (MYB mRNA; [2]) | IC50 (MYB mRNA; [3]) | AC50 (MYB mRNA; RT-qPCR)
0.1 to 1 µM: IC50 (MYB)

CN1C2C=C(c3ccc4c(=O)n(-c5ccc6nn(C)cc6c5)cnc4c3)CC1CC2 (stereo not shown) [Compound 161]
> 10 µM: GI50 [1] | IC50 (MYB mRNA; [2]) | IC50 (MYB mRNA; [3]) | AC50 (MYB mRNA; RT-qPCR) | IC50 (MYB)

Cc1cc(-c2cc(F)c3c(=O)n(C4CCNC5(CC5)C4)ccc3c2)cc2cn(C)nc12 (stereo not shown) [Compound 415, 2-{4-azaspiro[2.5]octan-7-yl}-6-(2,7-dimethylindazol-5-yl)-8-fluoroisoquinolin-1-one]
< 0.1 µM: IC50 (MYB mRNA; [2]) | IC50 (MYB mRNA; [3]) | AC50 (MYB mRNA; RT-qPCR) | IC50 (MYB)
0.1 to 1 µM: GI50 [1]

Cc1cn2cc(-c3ccc4c(=O)n([C@@H]5CCCNC5)ccc4c3)cc(F)c2n1 (single isomer, unassigned) [Compound 403]
1 to 10 µM: GI50 [1] | IC50 (MYB mRNA; [2]) | AC50 (MYB mRNA; RT-qPCR)
0.1 to 1 µM: IC50 (MYB mRNA; [3]) | IC50 (MYB)

— patent publication US20250332173A1, “COMPOUNDS AND METHODS FOR MODULATING NUCLEIC ACID SPLICING” (REMIX THERAPEUTICS INC., priority 2021, published 2025)
